# Laboratory results reported in patent US11472816B2, “Mcl-1 inhibitors and methods of use thereof” (AstraZeneca AB, priority 2016, dated 2022).
# Assays:
# MV-4-11 tumor = test: In vivo efficacy in MV-4-11 human acute myeloid leukemia subcutaneous tumor model; set-up: species or system C.B-17 SCID female mice
# Method: Method: Example 2 was formulated in 30% 2-Hydroxypropyl-beta-cyclodextrin (HPBCD), pH 9 and dosed as a single intravenous (iv) administration in a volume of 5 ml/kg. 10^6 MV-4-11 tumor cells were injected subcutaneously in the right flank of C.B-17 SCID female mice in a volume of 0.1 mL. Tumor volumes (measured by caliper), animal body weight, and tumor conditions were recorded twice weekly for the duration of the study. Tumor volumes (measured by caliper) were calculated using the formula: length (mm)×width (mm)^2[…]. For efficacy studies, mice were randomized based on tumor volumes and growth inhibition was assessed by comparison of the differences in tumor volume between control and treated groups. Dosing began when mean tumor size reached approximately 230 mm^3.
# NCI-H929 tumor = test: In vivo combination efficacy in NCI-H929 human multiple myeloma subcutaneous tumor model; set-up: species or system C.B-17 SCID female mice; conditions: either agent alone (Example 2 30 mg/kg every other week; bortezomib 1 mg/kg weekly), NCI-H929 tumor bearing mice
# Method: Method: Example 2 was formulated in 30% 2-Hydroxypropyl-beta-cyclodextrin (HPBCD), pH 9 and dosed as intravenously (iv) in a volume of 5 ml/kg. 5×10^6 MOLP-8 tumor cells or 10^7 NCI-H929 tumor cells were injected subcutaneously in the right flank of C.B-17 SCID female mice in a volume of 0.1 mL. Tumor volumes (measured by caliper) were calculated using the formula: length (mm)×width (mm)^2[…]. For efficacy studies, mice were randomized based on tumor volumes and growth inhibition was assessed by comparison of the differences in tumor volume between control and treated groups. Dosing began when mean tumor size reached approximately 160 mm^3 for MOLP-8 and approximately 230 mm^3 for NCI-H929.
Structure (SMILES),"mice remaining tumor free (MV-4-11 tumor; once weekly iv 30 mg/kg, 16 days after initiation of therapy)","mice remaining tumor free (MV-4-11 tumor; single iv dose of 100 mg/kg, 16 days after therapy)","anti-tumor activity, agent alone (NCI-H929 tumor)"
"Cc1c2c(nn1C)CSCc1cc(n(C)n1)CSc1cc(c3ccccc3c1)OCCCc1c(C(=O)O)n(C)c3c-2c(Cl)ccc13 (atropisomer, axis not shown; (Ra)) [Example 2, (Ra)-(+)-17-chloro-5,13,14,22-tetramethyl-28-oxa-2,9-dithia-5,6,12,13,22-pentaazaheptacyclo[27.7.1.1^4,7.0^11,15.0^16,21.0^20,24.0^30,35]octatriaconta-1(37),4(38),6,11,14,16,18,20,23,29,31,33,35-tridecaene-23-carboxylic acid]",1 of 6,4 of the 6,no significant anti-tumor activity
"CC(C)C[C@H](NC(=O)[C@H](Cc1ccccc1)NC(=O)c1cnccn1)B(O)O [bortezomib, reference compound]",,,no significant anti-tumor activity
